How the values were obtained:
crabgrass, large [1] = experiment: Test A preemergence; type: in vivo, Digitaria sanguinalis
Outline: (§1)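 Pre- and postemergence greenhouse test; loam+sand; cpd in non-phytotox. solvent/surfactant; post at 1–2 leaf, 2–10 cm; visual score ~10 d, 0 = none, 100 = complete control.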

morningglory = experiment: Test A preemergence; type: in vivo, Ipomoea spp.
Outline: as §1

velvetleaf = experiment: Test A preemergence; type: in vivo, Abutilon theophrasti
Outline: as §1

corn [2] = experiment: Test A preemergence; type: in vivo, Zea mays
Outline: as §1

barnyardgrass [3] = experiment: Test A postemergence; type: in vivo, Echinochloa crus-galli
Outline: as §1

foxtail, giant = experiment: Test A postemergence; type: in vivo, Setaria faberii
Outline: as §1

crabgrass, large [4] = experiment: Test C postemergence; type: in vivo, Digitaria sanguinalis; conditions: for Crabgrass, Large plant response rating: scale 0 to 100
Description: (§2) Seeds of plant species selected from blackgrass (Alopecurus myosuroides), ryegrass, Italian (Italian ryegrass, Lolium multiflorum), wheat (winter wheat, Triticum aestivum), galium (catchweed bedstraw, Galium aparine), corn (Zea mays), crabgrass, large (large crabgrass, Digitaria sanguinalis), foxtail, giant (giant foxtail, Setaria faberii), johnsongrass (Sorghum halepense), lambsquarters (Chenopodium album), morningglory (Ipomoea coccinea), nutsedge, yellow (yellow nutsedge, Cyperus esculentus), pigweed (redroot pigweed, Amaranthus retroflexus), ragweed (common ragweed, Ambrosia elation), soybean (Glycine max), barnyardgrass (Echinochloa crus-galli), oilseed rape (Brassica napus), waterhemp (common waterhemp, Amaranthus rudis), oat, wild (wild oat, Avena fatua), kochia (Kochia scoparia), Surinam grass (Brachiaria decumbens), foxtail, green (green foxtail, Setaria viridis), goosegrass (Eleusine indica), bromegrass, downy (downy bromegrass, Bromus tectorum), nightshade (eastern black nightshade, Solanum ptycanthum), cocklebur (common cocklebur, Xanthium strumarium), cupgrass, woolly (woolly cupgrass, Eriochloa villosa), bermudagrass (Cynodon dactylon), sunflower, (common oilseed sunflower, Helianthus annuus), Russian thistle (Salsola kali), and velvetleaf (Abutilon theophrasti) were planted into a blend of loam soil and sand and treated preemergence with test chemicals formulated in a non-phytotoxic solvent mixture which included a surfactant.
(§3) At the same time, plants selected from these crop and weed species and also chickweed (common chickweed, Stellaria media), canarygrass (littleseed canarygrass, Phalaris minor), and deadnettle (henbit deadnettle, Lamium amplexicaule), were planted in pots containing Redi-Earth® planting medium (Scotts Company, 14111 Scottslawn Road, Marysville, Ohio 43041) comprising spaghnum peat moss, vermiculite, wetting agent and starter nutrients and treated with postemergence applications of test chemicals formulated in the same manner. Plants ranged in height from 2 to 18 cm (1- to 4-leaf stage) for postemergence treatments. Treated plants and controls were maintained in a greenhouse for 13 to 15 days, after which time all species were compared to controls and visually evaluated. Plant response ratings, summarized in Table C, are based on a scale of 0 to 100 where 0 is no effect and 100 is complete control. A dash (-) response means no test result.

kochia = experiment: Test C postemergence; type: in vivo, Kochia scoparia; conditions: for Kochia plant response rating: scale 0 to 100
Description: as §2, §3

corn [5] = experiment: Test C preemergence; type: in vivo, Zea mays; conditions: for Plant response rating (scale of 0 to 100), Corn: 250 g ai/ha
Description: as §2, §3

galium = experiment: Test C postemergence; type: in vivo, Galium aparine; conditions: for Galium plant response rating: scale 0 to 100
Description: as §2, §3

rice = experiment: Test B flood; type: in vivo, Oryza sativa; conditions: 250 g ai/ha, visual rating on 0 to 100 scale (0 no effect, 100 complete control), 13 to 15 days
Outline: (§4)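 Visual ratings on a 0–100 scale, where 0 means no effect and 100 means complete control, were assigned by comparison with controls 13 to 15 days after treatment. Compounds went into paddy water over 2-leaf plants flooded to 3 cm.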

barnyardgrass [6] = experiment: Test B flood; type: in vivo, Echinochloa crus-galli; conditions: 250 g ai/ha, visual rating on 0 to 100 scale (0 no effect, 100 complete control), 13 to 15 days
Outline: as §4

oilseed rape = experiment: Test C preemergence; type: in vivo, Brassica napus; conditions: for Plant response rating, Oilseed Rape: Preemergence, scale 0 to 100
Description: as §2, §3

[7] = Preemergence, 1000 g ai/ha, 0 to 100 scale, 0 no effect, 100 complete control
[8] = Postemergence, 1000 g ai/ha, visual rating after approx. 10 days, 0 to 100 scale (0 no effect, 100 complete control)
[9] = postemergence, 250 g ai/ha, scale 0 to 100 (0 no effect, 100 complete control)
[10] = postemergence, 62 g ai/ha, scale 0 to 100, 0 no effect, 100 complete control
[11] = postemergence, 125 g ai/ha, scale 0 to 100, 0 no effect, 100 complete control
[12] = Preemergence, 500 g ai/ha, 0 to 100 scale, 0 no effect, 100 complete control
[13] = preemergence, 125 g ai/ha, visual injury, 0 to 100 scale, approx. 10 days
[14] = Postemergence, 125 g ai/ha, 0 to 100 scale, 0 no effect, 100 complete control
[15] = Postemergence, 500 g ai/ha, visual rating after approx. 10 days, 0 to 100 scale (0 no effect, 100 complete control)
[16] = postemergence, 125 g ai/ha, about 10 days, visual rating on 0 to 100 scale (0 no effect, 100 complete control)
[17] = preemergence, 31 g ai/ha, scale 0 to 100 (0 no effect, 100 complete control), 13 to 15 days
[18] = preemergence, 62 g ai/ha, 13 to 15 days, scale 0 to 100, 0 = no effect, 100 = complete control
[19] = preemergence, 125 g ai/ha, scale 0 to 100, 0 is no effect, 100 is complete control
[20] = preemergence, 500 g ai/ha, visual injury after approx. 10 days, 0 to 100 scale (0 no effect, 100 complete control)
[21] = Postemergence, 500 g ai/ha, 0 to 100 scale (0 no effect, 100 complete control)
[22] = preemergence, 31 g ai/ha, visual rating, scale 0 to 100 (0 no effect, 100 complete control), 13 to 15 days

| SMILES | Crabgrass, Large plant response rating (crabgrass, large [1]; [7]) | Morningglory plant response rating (morningglory; [7]) | Velvetleaf plant response rating (velvetleaf; [7]) | Corn plant response rating (corn [2]; [7]) | Barnyardgrass plant response rating (barnyardgrass [3]; [8]) | Foxtail, Giant plant response rating (foxtail, giant; [8]) | Crabgrass, Large plant response rating (crabgrass, large [4]; Postemergence, 31 g ai/ha) | Plant response rating, Crabgrass, Large (crabgrass, large [4]; [9]) | Plant response rating, Crabgrass, Large (crabgrass, large [4]; [10]) | Plant response rating, Crabgrass, Large (crabgrass, large [4]; [11]) | Kochia plant response rating (kochia; Postemergence, 31 g ai/ha) | Plant response rating, Kochia (kochia; [9]) | Plant response rating, Kochia (kochia; [10]) | Plant response rating, Kochia (kochia; [11]) | Crabgrass, Large plant response rating (crabgrass, large [1]; [13]) | Morningglory plant response rating (morningglory; [13]) | Velvetleaf plant response rating (velvetleaf; [13]) | Corn plant response rating (corn [2]; [13]) | Foxtail, Giant plant response rating (foxtail, giant; [16]) | Plant response rating (scale of 0 to 100), Corn (corn [5]; Preemergence) | further results |
| --- | --- | --- | --- | --- | --- | --- | --- | --- | --- | --- | --- | --- | --- | --- | --- | --- | --- | --- | --- | --- | --- |
| CCc1cc(C(=O)NCC(F)(F)F)nn1Cc1cccc(OC(F)(F)F)c1 [Compound 20] | 90 | 70 | 70 | 20 | 60 | 70 | 10 | 45 | 20 | 35 | 90 | 98 | 95 | 98 | – | – | – | – | – | – | – |
| CCCNC(=O)c1cc(CC)n(Cc2cccc(OC(F)(F)F)c2)n1 [Compound 27] | 100 | 90 | 30 | 30 | 60 | 70 | 0 | 45 | 5 | 10 | 35 | 95 | 70 | 80 | – | – | – | – | – | – | – |
| CCc1cc(C(=O)NOC(C)C)nn1Cc1cccc(OC(F)(F)F)c1 [Compound 70] | – | – | – | – | – | – | 5 | 45 | 10 | 40 | 50 | 70 | 55 | 55 | 100 | 80 | 40 | 50 | 90 | 85 | Crabgrass, Large plant response rating (crabgrass, large [1]; [12]): 100; Morningglory plant response rating (morningglory; [12]): 100; Velvetleaf plant response rating (velvetleaf; [12]): 80; Corn plant response rating (corn [2]; [12]): 80; Barnyardgrass plant response rating (barnyardgrass [3]; [14]): 80; Barnyardgrass plant response rating (barnyardgrass [3]; [15]): 90; Foxtail, Giant plant response rating (foxtail, giant; [15]): 90; Corn plant response rating (corn [5]; [17]): 40; Plant response rating, Corn (corn [5]; [18]): 60; Corn plant response rating (corn [5]; [19]): 70; Galium plant response rating (galium; Postemergence, 31 g ai/ha): 70; Plant response rating, Galium (galium; [9]): 90; Plant response rating, Galium (galium; [10]): 70; Plant response rating, Galium (galium; [11]): 75 |
| CCONC(=O)c1cc(CC)n(Cc2cccc(OC(F)(F)F)c2)n1 [Compound 72] | – | – | – | – | – | – | 5 | 25 | – | 5 | 10 | 55 | – | 40 | 90 | 60 | 70 | 50 | 80 | 75 | Crabgrass, Large plant response rating (crabgrass, large [1]; [12]): 100; Morningglory plant response rating (morningglory; [12]): 90; Velvetleaf plant response rating (velvetleaf; [12]): 100; Corn plant response rating (corn [2]; [12]): 70; Barnyardgrass plant response rating (barnyardgrass [3]; [14]): 90; Barnyardgrass plant response rating (barnyardgrass [3]; [15]): 90; Foxtail, Giant plant response rating (foxtail, giant; [15]): 90; Corn plant response rating (corn [5]; [17]): 30; Plant response rating, Corn (corn [5]; [18]): 45; Corn plant response rating (corn [5]; [19]): 60; Galium plant response rating (galium; Postemergence, 31 g ai/ha): 45; Galium plant response rating (galium; postemergence, 62 g ai/ha): 70; Plant response rating, Galium (galium; [9]): 80; Plant response rating, Galium (galium; [11]): 70; Crabgrass, Large plant response rating (crabgrass, large [4]; postemergence, 62 g ai/ha): 5; Kochia plant response rating (kochia; postemergence, 62 g ai/ha): 25 |
| Cc1cc(C(=O)NCC(F)(F)F)nn1Cc1ccnc(C(F)(F)F)c1 [Compound 74] | 100 | 100 | 100 | 90 | 90 | 90 | 10 | 75 | – | 30 | 20 | 90 | – | 80 | – | – | – | – | – | 98 | Plant response rating, Rice (rice): 0; Corn plant response rating (corn [5]; [17]): 10; Plant response rating, Corn (corn [5]; [18]): 60; Corn plant response rating (corn [5]; [19]): 75; Galium plant response rating (galium; Postemergence, 31 g ai/ha): 60; Galium plant response rating (galium; postemergence, 62 g ai/ha): 60; Plant response rating, Galium (galium; [9]): 85; Plant response rating, Galium (galium; [11]): 80; Crabgrass, Large plant response rating (crabgrass, large [4]; postemergence, 62 g ai/ha): 20; Kochia plant response rating (kochia; postemergence, 62 g ai/ha): 50 |
| CCOc1cc(C(=O)NCC(F)(F)F)nn1Cc1cc(C(F)(F)F)nn1C [Compound 140] | – | – | – | – | – | – | – | – | – | – | – | – | – | – | 100 | 80 | 60 | 10 | 80 | – | Crabgrass, Large plant response rating (crabgrass, large [1]; [20]): 100; Morningglory plant response rating (morningglory; [20]): 100; Velvetleaf plant response rating (velvetleaf; [20]): 100; Corn plant response rating (corn [2]; [20]): 80; Barnyardgrass plant response rating (barnyardgrass [3]; [21]): 90; Barnyardgrass plant response rating (barnyardgrass [3]; [16]): 70; Foxtail, Giant plant response rating (foxtail, giant; [21]): 90; Plant response rating, Rice (rice): 40; Plant response rating, Barnyardgrass (barnyardgrass [6]): 55; Plant response rating, Corn (corn [5]; Preemergence, 4 g ai/ha, scale 0 to 100): 0; Plant response rating, Corn (corn [5]; Preemergence, 8 g ai/ha, scale 0 to 100): 0; Plant response rating, Corn (corn [5]; Preemergence, 16 g ai/ha, scale 0 to 100): 0; Corn plant response rating (corn [5]; [22]): 10; Plant response rating, Oilseed Rape (oilseed rape; 4 g ai/ha): 5; Plant response rating, Oilseed Rape (oilseed rape; 8 g ai/ha): 80; Plant response rating, Oilseed Rape (oilseed rape; 16 g ai/ha): 95; Oilseed Rape plant response rating (oilseed rape; [22]): 95 |
